What all share (assay type): in vivo
The test system of one series is maize. The series can be described thus: Germination rate of maize in combination with insecticides (greenhouse). As to conditions: clothianidin 1.25, imidacloprid 0.75 mg ai/corn, compound A1 1 mg/ha, greenhouse 10° C., 80% humidity, 9 days, solvent control 17. The method, then: (§1) The test was performed under greenhouse conditions. Kernels were treated with different insecticides (ready formulated) or a mixture of compound A1 (1 mg/ha in 1:1, acetonitril/water) with the insecticides. Kernels were planted in soil and grown in the greenhouse at 20° C., 80% humidity, 12 h day/light cycle for 4 days (wheat) and at 10° C., 80% humidity, 12 h day/light cycle for 9 days (maize). Controls are performed in the same conditions in the absence of active ingredients. Assessment consisted of counting seedlings per treatment.

Another series has as its system Wheat kernels. Nature of the series: Germination rate of wheat in combination with fungicides (greenhouse). As to conditions: fungicides 25 g/dt in NMP, compound A1 0.1 mg/ha, soil, greenhouse 15° C., 70% humidity, 7 days, solvent control 69. How it is done:
The test is performed under greenhouse conditions.
Wheat kernels were treated with different fungicides (25 g/dt in NMP) or a mixture of compound A1 (0.1 mg/ha in 1:1, acetonitril/water) with the fungicides. Kernels were planted in soil and grown in the greenhouse at 15° C., 70% humidity, 14 h day/light cycle for 7 days.
Controls are performed in the same conditions in the absence of active ingredients. Assessment consisted of counting seedlings per treatment.

The subject of a further series is wheat. Nature of the series: Germination rate of wheat in combination with insecticides (greenhouse). As to conditions: thiacloprid 1.00 mg ai/corn, compound A1 1 mg/ha, greenhouse 20° C., 80% humidity, 4 days, solvent control 64. The method, then: as §1

As for `CN/C(=N\[N+](=O)[O-])NCc1cnc(Cl)s1` [clothianidin], the “germination % maize 9 d” value with maize turned out to be 8%.

For the molecule `CC(C)(C)C(O)(CCc1ccc(Cl)cc1)Cn1cncn1` (stereo not drawn) [tebuconazole], the “% germination” value in the series with Wheat kernels worked out at 21%.

As to `Cc1nn(C)c(F)c1C(=O)Nc1ccccc1C(C)CC(C)C` (stereo not drawn) [Penflufen], the “% germination” value with Wheat kernels is on record as 47%.

For the molecule `N#C/N=C1\SCCN1Cc1ccc(Cl)nc1` [thiacloprid], in the series on wheat, the “germination % wheat 4 d” value is given as 9%.

For `CO/N=C(/C1=NOCCO1)c1ccccc1Oc1ncnc(Oc2ccccc2Cl)c1F` [fluoxastrobin], the “% germination” value with Wheat kernels is recorded as 4%.

Regarding `N#Cc1c[nH]cc1-c1cccc2c1OC(F)(F)O2` [fludioxonil], the “% germination” value in the series with Wheat kernels is on record as 23%.

These data come from patent publication US20130345058A1, “USE OF LIPOCHITO-OLIGOSACCHARIDE COMPOUNDS FOR SAFEGUARDING SEED SAFETY OF TREATED SEEDS” (priority 2011, published 2013).
